Structures are written as SMILES. Where two headings read alike, the source gives them in different places.

Data set [1] relates to cells. The procedure:
Effect of Hydrogel Precursor Solution Components on Cell Viability. Cells (10^5 cells/mL) were plated on 48-well plates and were allowed to adhere to the plates overnight. […] The pH of one solution was adjusted to 5 (using […]) and that of the other solution was adjusted to 8 (using 1 M NaOH). […] The treatment groups were compared to untreated controls where cells were incubated with media. […] To this, 30 μL of MTS test reagent was added. Cells were then incubated with MTS test reagent for 3 hours and absorbance recorded at 490 nm on a UV plate reader.
(§1) Specifically, cells were treated with 0.05% to 1.5% (w/v) APS at pH 5 for 10 minutes or 0.05% to 1.5% (w/v) APS at pH 8 for 24, 48, or 72 hours and compared to controls in a MTS test and LIVE/DEAD cell assay. Similarly, cells were treated with 0.05% to 0.90% (w/v) TEMED at pH 5 for 10 minutes or 0.05% to 0.90% (w/v) TEMED at pH 8 for 24, 48, or 72 hours and compared to controls in a MTS test and LIVE/DEAD cell assay. Likewise, cells were treated with 0.05% to 1.0% (w/v) F-127 at pH 5 for 10 minutes or 0.05% to 1.0% (w/v) F-127 at pH 8 for 24, 48, or 72 hours and compared to controls in a MTS test and LIVE/DEAD cell assay.
(§2) Treatment groups were compared to untreated controls in both a MTS test and LIVE/DEAD cell assay.
(§3) The suspension in the test tube was allowed to stand for 5 minutes. Cells were treated with the supernatant for 10 minutes or 24, 48, or 72 hours. The saturated solution was aspirated from the wells, cells were washed and analyzed with the MTS test and LIVE/DEAD cell assay.
(§4) The effects of precursor solution constituents on cell viability were analyzed over a 72 hour period. The experiments were designed based on the conditions that the cells would be exposed to during the fabrication of superporous hydrogels; i.e., exposure to each constituent of SPH individually at pH of 5 for 10 minutes and thereafter for 24, 48 and 72 hours at pH of 8. […] 96 AQUEOUS ONE® solution Cell Proliferation Assay (MTS) and LIVE/DEAD cell assay were used to determine the effect of each of the constituents on cell viability.

The test system of data set [2] is cells. Nature of the data set: Effect of precursor solution components, LIVE/DEAD cell assay. The procedure: LIVE/DEAD cell assay was used to visualize live and dead cells (Gaugain, et al. (1978) Biochemistry 17:5071-8; Gaugain, et al. (1978) Biochemistry 17:5078-88). […] To the resuspended cells was added 100 μL of calcein-AM/ethidium homodimer stain (stock solutions of the dyes were prepared as per manufacturer's protocol-Molecular Probes). Cells were incubated for 30 minutes and images were captured of both treatment and control groups using a fluorescence microscope.
as §1, §2, §3, §4

Data set [3] has as its system gingival fibroblasts. The note with it: cited from earlier work.
Data set [4] deals with cells. Nature of the data set: Effect of physical foaming (nitrogen gas/compressed air) on cell viability. The data set is classed as cell-based. On the procedure: Effect of Physical Foaming on Cell Viability. Cells (10^5 cells/mL) were suspended in media and treated with the precursor solution used in fabrication of superporous hydrogels. […] The precursor solution was then exposed to UV for 3.5 minutes. In one treatment group nitrogen gas/compressed air was applied to the top of the cells at 200 psi for 2 minutes at a flow rate of 4000 mL/minute. In a second treatment group, nitrogen gas/compressed air was applied from below the cells suspended in the Buchner funnel at 200 psi for 2 minutes at a flow rate of 4000 mL/minute. Thereafter, each of the groups was exposed to UV at 5 mW/cm^2 for 3 minutes, washed twice with DPBS containing Ca and Mg, resuspended in fresh media and transferred to a 48-well plate. Cells were incubated for 24, 48 and 72 hours and cell viability was determined via the MTS test and LIVE/DEAD cell assay.

Data set [5] deals with cells. The note with it: cells in media at pH 5, 10 minutes, MTS and LIVE/DEAD. The procedure: A third group was the untreated controls. At the end of 10 minutes, the cells were washed, resuspended in fresh media, and analyzed with the MTS test reagent and LIVE/DEAD cell assay.

As usually defined, the cell viability is a read-out of living cells in per cent, often relative to untreated cells. In data set [1] (0.05% APS, MTS), `N.N.O=S(=O)(O)OOS(=O)(=O)O` [APS, Ammonium persulphate] had a cell viability of 60%. Moreover, the viable cells came to 21.25±9.6% in data set [1] (0.70% APS, 10 minutes, pH 5, MTS); 16.83±4.8% in data set [1] (0.70% APS, 24 hours, pH 8, MTS); 14.8±6.8% in data set [1] (0.70% APS, 48 hours, pH 8, MTS); 11.63±0.3% in data set [1] (0.70% APS, 72 hours, pH 8, MTS). Also, the toxicity entry in data set [1] (APS 0.05% to 1.5%, 10 minutes, 24, 48 and 72 hours) is “toxic to cells at all concentrations tested”. The live/dead cells entry is reported as “the cells were dead” in data set [2] (0.05% APS) and “dead cells at the end of each of the incubation periods” in data set [2] (APS, end of each incubation period).
Turning to `CN(C)CCN(C)C` [TEMED, N,N,N′,N′-tetramethylethylenediamine], the viable cells in data set [1] (0.90% TEMED, 10 minutes, pH 5, MTS) was determined as 108.59±1.23%; in data set [1] (0.90% TEMED, 24 hours, pH 8, MTS), 30.63±5.51%; in data set [1] (0.90% TEMED, 48 hours, pH 8, MTS), 20.41±6.92%; in data set [1] (0.90% TEMED, 72 hours, pH 8, MTS), 18.53±12.82%. Further, the toxicity entry in data set [1] (TEMED 0.05% to 0.90%, 10 minutes) is reported as “no significant toxicity”; in data set [1] (TEMED all concentrations, 24, 48 and 72 hours), “toxicity observed at all concentrations”. The live/dead cells result in data set [2] (TEMED all concentrations, 10 minutes) is reported as “cells were alive”; in data set [2] (TEMED, longer time periods), “they were dead”.
Consider `O=C(O)CC(O)(CC(=O)O)C(=O)O` [citric acid], for which the viable cells entry in data set [1] (10 min, 2.4 % (w/v), pH 5) was “about 99.7±11.6%”; in data set [1] (24 h, 2.4 % (w/v), pH 8), 28.95±5.70%; in data set [1] (48 h, 2.4 % (w/v), pH 8), 15.81±1.80%; in data set [1] (72 h, 2.4 % (w/v), pH 8), 16.20±6.81%. In data set [3] (47.6 mM (pH 2.3) in water, within three minutes), the cell death result is recorded as “complete cell death”. The “inhibition of attachment and spreading of fibroblasts on Type I collagen” value in data set [3] (medium containing 11.9 mM) is given as 22%. For the same molecule, the “inhibition of attachment and spreading of fibroblasts on culture plates” value in data set [3] (medium containing 11.9 mM) was 58%. For the same molecule, the “inhibition of protein synthesis” value in data set [3] (within three hours of incubation) was 0.28%.
Regarding `N#N` [nitrogen gas under pressure], the “cell death over 72 hours” value in data set [4] (cells washed and plated for 24, 48 and 72 hours after foaming) is recorded as “cell death observed over 72 hours”. Besides, the “cell death compared to untreated controls” value in data set [4] (determined immediately after treating cells) was “approximately 20%”.
As to `[Na+].[OH-]` [sodium hydroxide], in data set [5], the “cell death on sudden pH change from acidic to alkaline” value was “a significant amount of cell death”.

The values are drawn from patent publication US8414879B2, “Superporous hydrogel with cells encapsulated therein and method for producing the same” (The Board of Trustees of the University of Illinois, priority 2008, dated 2013).
